The conditions of series [1]: cited from earlier work; for Solubility Xxx: free amino acid, CRC Handbook of Chemistry and Physics; for solubility: prior art values, background.
Series [2] is described as follows: Solubility found for Lys-Xxx dipeptides. The following applies: as hydrochloride or as acetate (footnotes 6, 7).
Series [3] deals with antibody producing Chinese Hamster Ovary (CHO) cells (Subclone DG44). The series is described as follows: Experiment 3: cell growth (VCD) in TC-42 media, L-valine or L-isoleucine replaced by lysyl dipeptides. On the set-up: Viable cell densities (VCD) / maximum cell densities (max VCD): unit: 10^6 cells/ml. In kind it is cell-based. From the text:
(§1) The influence of the L-lysine dipeptides on the growth of antibody producing Chinese Hamster Ovary (CHO) cells (Subclone DG44; Life Technologies Cooperation, Carslbad, USA) in comparison to media containing either the corresponding free amino acids or the corresponding L-alanine dipeptides was investigated. For this purpose, the cells were cultivated in a TC-42 media produced by Xell AG, Bielefeld, Germany in which the amino acids provided within the experiments by dipeptides were lacking. The concentrations of these amino acids were adjusted in such a way that, taking into account a complete hydrolysis of the dipeptides into the amino acids, the concentration of all amino acids were the same in all media tested within this experiment.
(§2) Starting from a preparatory culture an initial viable cell density (VCD) of 0.3·10^6 cells/ml was adjusted in shaking flasks by adding the test media. After 2-4 days a part of the cell culture was transferred into a new shaking flask and an initial viable cell density (VCD) of 0.3.10^6 cells/ml was adjusted by adding new test media. This was done two times and then the cell growth was followed by measuring the viable cell density (VCD) for up to 24 days.
Experiment 3: Comparison of the Cell Growths obtained with TC-42 media in which L-valine and L-isoleucine, respectively, are replaced by L-lysyl-L-valine and L-lysyl-L-isoleucine, respectively.
For this experiment a TC-42 media produced by Xell AG, Bielefeld, Germany in which L-lysine, L-valine and L-isoleucine were lacking was used. These amino acids and the dipeptides L-lysyl-L-valine and L-lysyl-L-isoleucine, respectively, were then added to the test media in the concentration listed in table 6.

Series [4] has the same test system. The series is described as follows: Experiment 1: cell growth (VCD) in TC-42 media, cysteine/cystine or leucine replaced by dipeptides. In kind it is cell-based. On the set-up: Viable cell densities (VCD) / maximum cell densities (max. VCD): unit not given here.
Description: as §1, with “experiment. […] Experiment 1: Comparison of the Cell Growths Obtained with TC-42 media in which L-cysteine/L-cystine is replaced by bis-L-alanyl-L-cystine, bis-L-prolyl-L-cystine or bis-L-lysyl-L-cystine and L-leucine is replaced by […] For this experiment a TC-42 media produced by Xell AG, Bielefeld, Germany in which […]-cystine and L-leucine were deliberately left out of the initial formulation. […] [table]” for “experiment.”

Series [5] shares this test system. The series can be described thus: Experiment 2: cell growth (VCD) in TC-42 media, L-tyrosine replaced by dipeptides. In kind it is cell-based. On the set-up: key to Viable cell densities (VCD) / maximum cell densities (max VCD): 10^6 cells/ml.
Description: as §1, §2
These amino acids and the dipeptides L-alanyl-L-tyrosine dihydrate and L-lysyl-L-tyrosine acetate, respectively, were then added to the test media in the concentration listed in table 4.

For `N[C@@H](CSSC[C@H](N)C(=O)O)C(=O)O` [L-Cystine], in series [1], the “Solubility Xxx” value was 0.1 g/1000 g solution and the solubility is 0.1 g/ltr.
Regarding `CC[C@H](C)[C@H](N)C(=O)O` [L-Isoleucine], the “Solubility Xxx” value in series [1] was 39.6 g/1000 g solution.
`CC(C)C[C@H](N)C(=O)O` [L-Leucine]: in series [1], the “Solubility Xxx” value is given as 23.7 g/1000 g solution.
On to `CC(C)[C@H](N)C(=O)O` [L-Valine], for which, in series [1], the “Solubility Xxx” value is given as 81.3 g/1000 g solution.
`CC[C@H](C)[C@H](NC(=O)[C@@H](N)CCCCN)C(=O)O` [Lys-Ile, L-Lysyl-L-isoleucine]: the “Solubility Lys-Xxx found” value in series [2] was >500 ^7) g/1000 g solution. Further, the “maximum cell densities (max VCD)” value in series [3] (TC-42 media of table 6) amounted to 10.67. Moreover, the “Viable cell densities (VCD)” value stood at 0.44 in series [3] (Time 0.0, TC-42 media of table 6); 1.78 in series [3] (Time 2.8, TC-42 media of table 6); 0.48 in series [3] (Time 3.0, TC-42 media of table 6); 3.36 in series [3] (Time 6.8, TC-42 media of table 6); 0.39 in series [3] (Time 6.9, TC-42 media of table 6); 0.60 in series [3] (Time 7.9, TC-42 media of table 6). The “Viable cell densities (VCD)” value in series [3] (Time 8.8, TC-42 media of table 6) worked out at 1.04; in series [3] (Time 9.8, TC-42 media of table 6) it was 1.73; in series [3] (Time 10.8, TC-42 media of table 6), 2.73; in series [3] (Time 11.8, TC-42 media of table 6), 4.62; in series [3] (Time 12.9, TC-42 media of table 6) it was 5.77; in series [3] (Time 13.8, TC-42 media of table 6), 7.19. In addition, the “Viable cell densities (VCD)” value in series [3] (Time 14.8, TC-42 media of table 6) turned out to be 9.27; in series [3] (Time 15.9, TC-42 media of table 6), 9.45; in series [3] (Time 16.9, TC-42 media of table 6), 9.40; in series [3] (Time 17.9, TC-42 media of table 6), 10.56; in series [3] (Time 18.8, TC-42 media of table 6) it was 10.67; in series [3] (Time 19.8, TC-42 media of table 6), 9.18. Moreover, the “Viable cell densities (VCD)” value in series [3] (Time 21.0, TC-42 media of table 6) turned out to be 8.77. The “growth curve and maximum cell density compared with reference medium (FIG. 3)” value in series [3] (equimolar amounts) was “a slower growth and a lower maximum cell density”.
With `NCCCC[C@H](N)C(=O)N[C@@H](Cc1ccc(O)cc1)C(=O)O` [Lys-Tyr, L-Lysyl-L-tyrosine acetate], in series [2], the “Solubility Lys-Xxx found” value is >330 ^7) g/1000 g solution.
As for “Bis-L-prolyl-L-cystine [Pro2-Cyss, reference compound]”, the “maximum cell densities (max. VCD)” value in series [4] (TC-42 media of table 2) was determined as 0.79. Moreover, the “Viable cell densities (VCD)” value in series [4] (Time 0.0, TC-42 media of table 2) is given as 0.31; in series [4] (Time 0.7, TC-42 media of table 2), 0.37; in series [4] (Time 2.0, TC-42 media of table 2), 0.32; in series [4] (Time 2.7, TC-42 media of table 2), 0.21; in series [4] (Time 3.6, TC-42 media of table 2), 0.18; in series [4] (Time 3.7, TC-42 media of table 2), 0.30. In addition, the “Viable cell densities (VCD)” value in series [4] (Time 4.7, TC-42 media of table 2) was determined as 0.24; in series [4] (Time 5.8, TC-42 media of table 2) it was 0.14; in series [4] (Time 6.7, TC-42 media of table 2), 0.08; in series [4] (Time 6.8, TC-42 media of table 2), 0.32; in series [4] (Time 7.8, TC-42 media of table 2), 0.43; in series [4] (Time 8.7, TC-42 media of table 2), 0.41. Moreover, the “Viable cell densities (VCD)” value in series [4] (Time 9.7, TC-42 media of table 2) is reported as 0.34; in series [4] (Time 10.6, TC-42 media of table 2) it was 0.27; in series [4] (Time 11.6, TC-42 media of table 2), 0.79. Besides, the “cell growth performance compared with reference medium (FIG. 1)” value in series [4] (same molar amount of cysteine and cystine in the form of dipeptides) was “almost no growth”.
L-Alanyl-L-tyrosine × 2H2O [Ala-Tyr]: the “maximum cell densities (max VCD)” value in series [5] (TC-42 media of table 4) turned out to be 12.44. The “Viable cell densities (VCD)” value came to 0.38 in series [5] (Time [d] 0.0, TC-42 media of table 4); 0.51 in series [5] (Time [d] 0.7, TC-42 media of table 4); 1.22 in series [5] (Time [d] 1.7, TC-42 media of table 4); 2.22 in series [5] (Time [d] 2.7, first entry, TC-42 media of table 4); 0.35 in series [5] (Time [d] 2.7, second entry (after transfer into new flask), TC-42 media of table 4); 0.77 in series [5] (Time [d] 4.0, TC-42 media of table 4). For the same compound, the “Viable cell densities (VCD)” value in series [5] (Time [d] 4.9, TC-42 media of table 4) amounted to 1.59; in series [5] (Time [d] 5.7, TC-42 media of table 4), 1.93; in series [5] (Time [d] 6.7, first entry, TC-42 media of table 4), 2.82; in series [5] (Time [d] 6.7, second entry (after transfer into new flask), TC-42 media of table 4) it was 0.31; in series [5] (Time [d] 7.7, TC-42 media of table 4), 0.48; in series [5] (Time [d] 8.7, TC-42 media of table 4) it was 1.17. In addition, the “Viable cell densities (VCD)” value in series [5] (Time [d] 9.7, TC-42 media of table 4) is listed as 1.92; in series [5] (Time [d] 11.0, TC-42 media of table 4) it was 4.11; in series [5] (Time [d] 11.8, TC-42 media of table 4), 6.12; in series [5] (Time [d] 12.7, TC-42 media of table 4), 8.29; in series [5] (Time [d] 13.7, TC-42 media of table 4), 10.49; in series [5] (Time [d] 14.7, TC-42 media of table 4), 12.44. Also, the “Viable cell densities (VCD)” value in series [5] (Time [d] 15.7, TC-42 media of table 4) worked out at 11.34; in series [5] (Time [d] 16.7, TC-42 media of table 4) it was 12.42; in series [5] (Time [d] 17.9, TC-42 media of table 4), 11.06; in series [5] (Time [d] 18.9, TC-42 media of table 4) it was 11.31; in series [5] (Time [d] 19.7, TC-42 media of table 4), 11.20; in series [5] (Time [d] 20.7, TC-42 media of table 4) it was 11.13. Besides, the “Viable cell densities (VCD)” value in series [5] (Time [d] 21.7, TC-42 media of table 4) was determined as 11.24. Also, the “growth curves compared with reference medium (FIG. 2)” value in series [5] (equimolar amounts of tyrosine) is given as “no significant difference”. For the same compound, the “maximum cell density compared with reference medium” value in series [5] (equimolar amounts of tyrosine) is recorded as “slightly higher values”. Further, the “Solubility Ala-Xxx” value in series [1] (Degussa product brochure, cystine value WO 2011/133902) is reported as 15.3 g/1000 g solution. In addition, in series [1], the solubility was 8.7 g/ltr.
